These results are taken from patent US9212163B2, “Pesticidal compositions and processes related thereto” (Dow AgroSciences LLC, priority 2012, dated 2015).

In assay [1] the test system is Cabbage Looper (CL) (Trichoplusia ni). Nature of the assay: Bioassay on Cabbage Looper (CL), 128-well diet tray assay. The class given is in vivo. As to conditions: read-out: CL Rating; for pest or weed control at 50 µg/cm2: Table 5: Prophetic Compounds Subsequently Exemplified. The protocol: Certain molecules disclosed in this document were tested against BAW, CEW and CL using procedures described in the following examples. In the reporting of the results, the “BAW & CEW & CL Rating Table” was used (See Table Section).
Bioassays on CL (Trichoplusia ni)
Bioassays on CL were conducted using a 128-well diet tray assay. One to five second instar CL larvae were placed in each well (3 mL) of the diet tray that had been previously filled with 1 mL of artificial diet to which 50 μg/cm^2 of the test compound (dissolved in 50 μL of 90:10 acetone-water mixture) had been applied (to each of eight wells) and then allowed to dry. Trays were covered with a clear self-adhesive cover, and held at 25° C., 14:10 light-dark for five to seven days. Percent mortality was recorded for the larvae in each well; activity in the eight wells was then averaged. The results are indicated in the table entitled “Table 4: Assay Results Part 2” (See Table Section).

In assay [2] the test system is Beet Armyworm (BAW) (Spodoptera exigua). Put plainly: Bioassay on Beet Armyworm (BAW), 128-well diet tray assay. Format: in vivo. As to conditions: for pest or weed control at 50 µg/cm2: Table 5: Prophetic Compounds Subsequently Exemplified; for BAW Rating: Table 3: Assay Results Part 1. The procedure, abridged: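 Artificial diet treated with 50 μg/cm^2 compound in 90:10 acetone-water was dried, then one to five second-instar larvae were placed per well, eight wells per compound. Trays were held at 25° C., 14:10 light-dark for five to seven days, and percent mortality averaged across wells.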

Where [3] appears, read: Spodoptera exigua, read-out: BAW Rating.

Take `O=C(NC1(C(=O)NCC(F)F)CC1)c1ccc(/C=C/C(c2cc(Br)cc(Br)c2)C(F)(F)F)cc1C(F)(F)F` (stereo not drawn) [Compound P1195]: the pest or weed control at 50 µg/cm2 in assay [1] and in assay [2] (setting [3]) was 50 to 100% in each case.

On to `CCNC(=O)C1(NC(=O)c2ccc(/C=C/C(c3cc(Cl)c(Cl)c(Cl)c3)C(F)(F)F)cc2Br)CC1` (stereo not drawn) [Compound P1023], for which the pest or weed control at 50 µg/cm2 in assay [1] and in assay [2] (setting [3]) was 50 to 100% in each case.

In the case of `O=C(NC1(C(=O)NCC(F)(F)F)CC1)c1ccc(/C=C/C(c2cc(Br)cc(Br)c2)C(F)(F)F)cc1C(F)(F)F` (stereo not drawn) [Compound P1198], the pest or weed control at 50 µg/cm2 in assay [1] and in assay [2] (setting [3]) was 50 to 100% each time.

For the compound `O=C(NC1(C(=O)NCC(F)(F)F)CC1)c1ccc(/C=C/C(c2ccc(Cl)c([N+](=O)[O-])c2)C(F)(F)F)cc1Br` (stereo not drawn) [Compound P468], the pest or weed control at 50 µg/cm2 in assay [1] and in assay [2] (setting [3]) was 50 to 100% throughout.

For the compound `O=C(NC1(C(=O)NCC(F)(F)F)CC1)c1ccc(/C=C/C(c2cc(F)cc(Br)c2)C(F)(F)F)cc1C(F)(F)F` (stereo not drawn) [Compound P200], the pest or weed control at 50 µg/cm2 in assay [1] and in assay [2] (setting [3]) was 50 to 100% in each case.

In the case of `O=C(NC1(C(=O)NCCF)CC1)c1ccc(/C=C/C(c2cc(Br)cc(Br)c2)C(F)(F)F)cc1C(F)(F)F` (stereo not drawn) [Compound P1200], the pest or weed control at 50 µg/cm2 in assay [1] and in assay [2] (setting [3]) was 50 to 100% each time.

For `O=C(NC1(C(=O)NCCC(F)(F)F)CC1)c1ccc(/C=C/C(c2cc(Cl)c(Cl)c(Cl)c2)C(F)(F)F)cc1C(F)(F)F` (stereo not drawn) [Compound P1035], the pest or weed control at 50 µg/cm2 in assay [1] and in assay [2] (setting [3]) was 50 to 100% each time.

As to `Cc1cc(C(/C=C/c2ccc(C(=O)NC3(C(=O)NCC(F)(F)F)CC3)c(Br)c2)C(F)(F)F)cc(C)c1F` (stereo not drawn) [Compound P333], the pest or weed control at 50 µg/cm2 in assay [1] and in assay [2] (setting [3]) was 50 to 100% throughout.

As to `O=C(NC1(C(=O)NCC(F)(F)F)CC1)c1ccc(/C=C/C(c2cc(Cl)cc(Cl)c2)C(F)(F)F)cc1C(F)(F)F` (stereo not drawn) [Compound P1050], the pest or weed control at 50 µg/cm2 in assay [1] and in assay [2] (setting [3]) was 50 to 100% throughout.

Consider `N#CC1(NC(=O)c2ccc(/C=C/C(c3cc(Cl)c(Cl)c(Cl)c3)C(F)(F)F)cc2Br)CC1` (stereo not drawn) [Compound F7, (E)-2-Bromo-N-(1-cyanocyclopropyl)-4-(4,4,4-trifluoro-3-(3,4,5-trichlorophenyl)but-1-en-1-yl)benzamide], for which the pest or weed control at 50 µg/cm2, 50 µg/cm2 in assay [1] (168 h, % mortality, second instar larvae, 50 μg/cm^2 on artificial diet, 25° C., five to seven days, average of eight wells) is 50 to 100%; in assay [2] (Spodoptera exigua, 168 h, % mortality, second instar larvae, 50 μg/cm^2 on artificial diet, 25° C., five to seven days, average of eight wells, read-out: BAW Rating), 50 to 100%.

`O=C(NC1(C(=O)NCC(F)(F)F)CC1)c1ccc(/C=C/C(c2cc(Cl)c(Cl)c(Cl)c2)C(F)(F)C(F)(F)F)cc1Br` (stereo not drawn) [Compound P1003]: the pest or weed control at 50 µg/cm2 in assay [1] and in assay [2] (setting [3]) was 50 to 100% in each case.

`O=C(NC1(C(=O)NCC(F)F)CC1)c1ccc(/C=C/C(c2cc(Cl)c(Cl)c(Cl)c2)C(F)(F)F)cc1C(F)(F)F` (stereo not drawn) [Compound P1015]: the pest or weed control at 50 µg/cm2 in assay [1] and in assay [2] (setting [3]) was 50 to 100% throughout.

As for `O=C(NC1(C(=O)NCC(F)(F)F)CC1)c1ccc(/C=C/C(c2cc(Br)cc(Br)c2)C(F)(F)F)cc1Br` (stereo not drawn) [Compound P1183], the pest or weed control at 50 µg/cm2 in assay [1] and in assay [2] (setting [3]) was 50 to 100% in each case.

For the compound `O=C(NC1(C(=O)NCCF)CC1)c1ccc(/C=C/C(c2cc(Cl)c(Cl)c(Cl)c2)C(F)(F)F)cc1C(F)(F)F` (stereo not drawn) [Compound P1020], the pest or weed control at 50 µg/cm2 in assay [1] and in assay [2] (setting [3]) was 50 to 100% in each case.

For the compound `O=C(NC1(C(=O)NCC(F)(F)F)CC1)c1ccc(/C=C/C(c2cccc(OC(F)(F)F)c2)C(F)(F)F)cc1C(F)(F)F` (stereo not drawn) [Compound P155], the pest or weed control at 50 µg/cm2 in assay [1] and in assay [2] (setting [3]) was 50 to 100% throughout.

Take `Cc1cc(C(/C=C/c2ccc(C(=O)NC3(C(=O)NCC(F)(F)F)CC3)c(C(F)(F)F)c2)C(F)(F)F)ccc1F` (stereo not drawn) [Compound P336]: the pest or weed control at 50 µg/cm2 in assay [1] and in assay [2] (setting [3]) was 50 to 100% in each case.

On to `CSCCC(=O)NCc1ccc(/C=C/C(c2cc(Cl)c(Cl)c(Cl)c2)C(F)(F)F)cc1Cl` (stereo not drawn) [CC19], for which the “BAW Rating” value in assay [2] is given as “A (50-100)”.

As to `O=C(Cn1ncc2cc(/C=C/C(c3cc(Cl)c(F)c(Cl)c3)C(F)(F)F)ccc2c1=O)NCC(F)(F)F` (stereo not drawn) [BC14, (E)-2-(6-(3-(3,5-Dichloro-4-fluorophenyl)-4,4,4-trifluorobut-1-en-1-yl)-1-oxophthalazin-2(1H)-yl)-N-(2,2,2-trifluoroethyl)acetamide], the “BAW Rating” value in assay [2] is recorded as “A (50-100)”.

Turning to `O=C(NCC(=S)NCC(F)(F)F)c1ccc(/C=C/C(c2cc(Cl)c(Cl)c(Cl)c2)C(F)(F)F)cc1Br` (stereo not drawn) [AC92, (E)-2-Bromo-N-(2-thioxo-2-((2,2,2-trifluoroethyl)amino)ethyl)-4-(4,4,4-trifluoro-3-(3,4,5-trichlorophenyl)but-1-en-1-yl)benzamide], the “BAW Rating” value in assay [2] is reported as “A (50-100)”.

Regarding `N#Cc1cc(/C=C/C(c2cc(Cl)cc(Cl)c2)C(F)(F)F)ccc1-n1cnc(N)n1` (stereo not drawn) [DC38], the “BAW Rating” value in assay [2] is given as “A (50-100)”.

Turning to `Cc1cc(/C=C/C(c2cc(Cl)c(Cl)c(Cl)c2)C(F)(F)F)ccc1C(=O)NCc1cnc(Cl)s1` (stereo not drawn) [AC26], the “BAW Rating” value in assay [2] is given as “A (50-100)”.

For the compound `Cc1cc(/C=C/C(c2cc(Cl)c(Cl)c(Cl)c2)C(F)(F)F)ccc1-n1cncn1` (stereo not drawn) [DC63], the “BAW Rating” value in assay [2] was “A (50-100)”.

As to `CCNC(=O)NCc1ccc(/C=C/C(c2cc(Cl)c(Cl)c(Cl)c2)C(F)(F)F)cc1Br` (stereo not drawn) [CC33], the “BAW Rating” value in assay [2] is recorded as “A (50-100)”.

In the case of `O=C(NC1CS(=O)(=O)C1)c1ccc(/C=C/C(c2cc(Cl)c(Cl)c(Cl)c2)C(F)(F)F)cc1Cl` (stereo not drawn) [AC30], the “BAW Rating” value in assay [2] is listed as “A (50-100)”.

As to `O=C(CC(F)(F)F)NCc1ccc(/C=C/C(c2cc(Cl)c(Cl)c(Cl)c2)C(F)(F)F)cc1F` (stereo not drawn) [CC27], the “BAW Rating” value in assay [2] is “A (50-100)”.

For the compound `O=C(NCCc1ccc(Cl)nc1)c1ccc(/C=C/C(c2cc(Cl)c(Cl)c(Cl)c2)C(F)(F)F)cc1Br` (stereo not drawn) [AC113], the “BAW Rating” value in assay [2] was “B (More than 0-Less than 50)”.

Take `N#Cc1cc(/C=C/C(c2cc(Cl)c(Cl)c(Cl)c2)C(F)(F)F)ccc1-n1cnc(NC(=O)C2CC2)n1` (stereo not drawn) [DC43, (E)-N-(1-(2-Cyano-4-(4,4,4-trifluoro-3-(3,4,5-trichlorophenyl)but-1-en-1-yl)phenyl)-1H-1,2,4-triazol-3-yl)cyclopropanecarboxamide]: the “BAW Rating” value in assay [2] was “A (50-100)”.

As to `O=C(NCc1ccc(/C=C/C(c2ccc(Cl)c(Cl)c2)C(F)(F)F)cc1Cl)C1CC1` (stereo not drawn) [CC17], the “BAW Rating” value in assay [2] was “A (50-100)”.

Take `O=C(NCc1ccc(/C=C/C(c2cc(Cl)c(Cl)c(Cl)c2)C(F)(F)F)cc1)C1CC1` (stereo not drawn) [CC5]: the “BAW Rating” value in assay [2] is “A (50-100)”.

Turning to `O=C(CC(F)(F)F)NCc1ccc(/C=C/C(c2cc(Cl)cc(Cl)c2)C(F)(F)F)cc1Cl` (stereo not drawn) [CC9], in assay [2], the “BAW Rating” value is on record as “A (50-100)”.

For `O=C(CC(F)(F)F)NCC(=O)n1ccc2cc(/C=C/C(c3cc(Cl)c(F)c(Cl)c3)C(F)(F)F)ccc21` (stereo not drawn) [BC13, (E)-N-(2-(5-(3-(3,5-Dichloro-4-fluorophenyl)-4,4,4-trifluorobut-1-en-1-yl)-1H-indol-1-yl)-2-oxoethyl)-3,3,3-trifluoropropanamide], the “BAW Rating” value in assay [2] was “A (50-100)”.

For the compound `Cc1cc(/C=C/C(c2cc(Cl)c(F)c(Cl)c2)C(F)(F)F)ccc1C(=O)NCC(=O)NCC(F)(F)F` (stereo not drawn) [AC69], in assay [2], the “BAW Rating” value was “A (50-100)”.

`O=C(NC1CSC1)c1ccc(/C=C/C(c2cc(Cl)c(Cl)c(Cl)c2)C(F)(F)F)cc1C(F)(F)F` (stereo not drawn) [AC34]: the “BAW Rating” value in assay [2] is recorded as “A (50-100)”.

For the compound `Cc1cc(/C=C/C(c2cc(Cl)cc(Cl)c2)C(F)(F)F)ccc1C(=O)NCc1nnc(C2CC2)o1` (stereo not drawn) [AC89, (E)-N-((5-Cyclopropyl-1,3,4-oxadiazol-2-yl)methyl)-4-(3-(3,5-dichlorophenyl)-4,4,4-trifluorobut-1-en-1-yl)-2-methylbenzamide], the “BAW Rating” value in assay [2] was “A (50-100)”.

With `COc1cc(/C=C/C(c2cc(Cl)c(F)c(Cl)c2)C(F)(F)F)ccc1C(=O)NC1CS(=O)(=O)C1` (stereo not drawn) [AC85], in assay [2], the “BAW Rating” value was “A (50-100)”.

For `Cc1cc(C)cc(C(/C=C/c2ccc(-n3cncn3)cc2)C(F)(F)F)c1` (stereo not drawn) [DC11], the “BAW Rating” value in assay [2] was “A (50-100)”.

For `CC(=O)Nc1ncn(-c2ccc(/C=C/C(c3cc(Cl)cc(Cl)c3)C(F)(F)F)cc2C#N)n1` (stereo not drawn) [DC39], the “BAW Rating” value in assay [2] was “A (50-100)”.

For `O=C(NC1CCNCC1)c1ccc(/C=C/C(c2cc(Cl)c(Cl)c(Cl)c2)C(F)(F)F)cc1Br` (stereo not drawn) [AC114, (E)-2-Bromo-N-(piperidin-4-yl)-4-(4,4,4-trifluoro-3-(3,4,5-trichlorophenyl)but-1-en-1-yl)benzamide], the “BAW Rating” value in assay [2] is given as “A (50-100)”.

Regarding `O=C(NOc1ccc(/C=C/C(c2cc(Cl)c(Cl)c(Cl)c2)C(F)(F)F)cc1)C1CC1` (stereo not drawn) [CC52, (E)-N-(4-(4,4,4-Trifluoro-3-(3,4,5-trichlorophenyl)but-1-en-1-yl)phenoxy)cyclopropanecarboxamide], the “BAW Rating” value in assay [2] is “A (50-100)”.

With `N#Cc1cc(/C=C/C(c2cc(Cl)c(F)c(Cl)c2)C(F)(F)F)ccc1-n1cncn1` (stereo not drawn) [DC35], the “BAW Rating” value in assay [2] was “A (50-100)”.

In the case of `Cc1cc(/C=C/C(c2cc(Cl)cc(Cl)c2)C(F)(F)F)ccc1C(=O)NC(C)(C)c1ccccn1` (stereo not drawn) [AC16], the “BAW Rating” value in assay [2] is “A (50-100)”.
